Counter-ions that a name gives are not always drawn. Like-named read-outs stand apart in the source and are kept apart here. Blank lines part the entries; values can stand above or below the compound they belong to.
Legend:
[1] = molecular target: T1, muscarinic receptors (heart) (Rattus norvegicus, UniProt P10980); assay: Receptor binding test in vitro, 3H-NMS displacement, whole heart; set-up: species or system rat (male Sprague-Dawley)
T1 construct: The whole heart was cut up with scissors; from tissue; host or cells: whole heart of male Sprague-Dawley rats, homogenate
T1 sequence (P10980 1-466): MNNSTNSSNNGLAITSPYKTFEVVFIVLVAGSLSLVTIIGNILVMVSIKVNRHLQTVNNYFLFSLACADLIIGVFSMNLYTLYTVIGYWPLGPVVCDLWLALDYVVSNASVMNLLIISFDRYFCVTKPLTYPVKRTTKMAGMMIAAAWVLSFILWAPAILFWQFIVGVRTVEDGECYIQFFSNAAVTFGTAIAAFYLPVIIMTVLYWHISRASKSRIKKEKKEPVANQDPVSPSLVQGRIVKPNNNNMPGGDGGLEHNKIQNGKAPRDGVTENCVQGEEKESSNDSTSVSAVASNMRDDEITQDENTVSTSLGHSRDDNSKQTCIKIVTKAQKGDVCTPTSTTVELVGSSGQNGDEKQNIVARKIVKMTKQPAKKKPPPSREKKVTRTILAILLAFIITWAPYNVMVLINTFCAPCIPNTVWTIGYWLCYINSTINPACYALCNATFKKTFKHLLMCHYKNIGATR
Experimental: The organs were donated by male Sprague-Dawley rats weighing 180-220 g. After the heart and submandibular gland had been removed, all other steps were carried out in ice cold Hepes HCl buffer (pH 7.4; 100 mmolar NaCl, 10 mmolar MgCl2). The whole heart was cut up with scissors. All the organs were then homogenised in a Potter apparatus.
For the binding test the homogenised organs were diluted as follows:
The homogenised organs were incubated at a certain concentration of the radioligand and at a series of concentrations of the non-radioactive test substances in an Eppendorf centrifuge tube at 30° C. Incubation lasted 45 minutes. […] Incubation was ended by the addition of ice cold buffer followed by vacuum filtration. The filters were rinsed with cold buffer and their radioactivity was determined. […] Each measurement was taken four times. The IC50 values of the non-labelled test substances were determined graphically.

[2] = molecular target: T2, M2 (Rattus norvegicus, UniProt P10980); assay: M2 activity in the rat: inhibition of bradycardia caused by vagus stimulation; assay type: in vivo, rat (male THOM); details: iv, 5 min, 50% reduction of vagal bradycardia
T2 construct: The bradycardia caused by vagus stimulation; from tissue; host or cells: heart of the living male THOM rat
T2 sequence (P10980 1-466): T1 sequence (P10980 1-466)
Experimental: The method used was described by Hammer and Giachetti (Life Sciences 31, 2991-2998 (1982)). 5 minutes after the intravenous injection of increasing doses of the substance, either the right vagus was electrically stimulated (frequency: 25 Hz; pulse width: 2 ms; duration of stimulus: 30 s; voltage: supramaximal) or 0.3 mg/kg of McN-A-343 were intravenously injected into male THOM rats. The bradycardia caused by vagus stimulation and the rise in blood pressure caused by McN-A-343 were determined. The dosage of the substances which reduced either the vagal bradycardia (M2) or the rise in blood pressure (M1) by 50% was determined graphically. For the results see Table II.

[3] = molecular target: muscarinic receptors (submandibular gland) (Rattus norvegicus, UniProt P08483); assay: biochemical; assay type: binding, rat (male Sprague-Dawley); details: in vitro, 0.3 nmolar 3H-NMS, 45 min, 30° C., read-out: log IC50, Submandibular gland (converted)
[4] = molecular target: T3, M1 (Rattus norvegicus, UniProt P08482); assay: M1 activity in the rat: inhibition of rise in blood pressure caused by McN-A-343; assay type: in vivo, rat (male THOM); details: iv, 5 min, read-out: M1 activity (rat) ED50
T3 construct: from tissue; host or cells: living male THOM rat (site of action, sympathetic ganglia, is own knowledge)
T3 sequence (P08482 1-460): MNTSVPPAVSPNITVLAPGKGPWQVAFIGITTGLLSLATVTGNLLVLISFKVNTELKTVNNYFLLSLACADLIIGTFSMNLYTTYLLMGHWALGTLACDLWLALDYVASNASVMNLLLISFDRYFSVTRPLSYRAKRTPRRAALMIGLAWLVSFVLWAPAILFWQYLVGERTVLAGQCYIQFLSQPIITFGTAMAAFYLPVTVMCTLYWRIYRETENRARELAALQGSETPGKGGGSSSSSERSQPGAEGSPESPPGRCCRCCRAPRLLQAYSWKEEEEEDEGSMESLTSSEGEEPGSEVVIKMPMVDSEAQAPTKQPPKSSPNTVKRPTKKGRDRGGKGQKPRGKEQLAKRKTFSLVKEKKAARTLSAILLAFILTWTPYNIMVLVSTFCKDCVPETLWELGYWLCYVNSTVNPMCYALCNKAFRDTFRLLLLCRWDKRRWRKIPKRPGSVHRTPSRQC
Experimental: The dosage of the substances which reduced either the vagal bradycardia (M2) or the rise in blood pressure (M1) by 50% was determined graphically. For the results see Table II.

[5] = Solubility in water; assay type: physicochemical
[6] = molecular target: muscarinic receptors (lachrymal glands) (Rattus norvegicus, UniProt P08483); assay: in vivo; details: for ED50: iv, 0.5 h, read-out: ID50, Lachrymal glands
Experimental: (§1) For these experiments, female rats with a body weight of about 200 g were used. Before the start of the experiment the animals were anaesthetised with a dose of 1.25 g/kg of urethane. The animals were given the dosage of test substance by i.v. injection. After 15 minutes, 113 ng/kg of ^3 H-N-methylscopolamine (^3 H-NMS) were given by the same route. After another 15 minutes the animals were killed and their heart, bronchi and lachrymal glands were taken out. These organs were dissolved in Soluene R and the radioactivity was measured. These measurements were taken as representing total binding. […] The ID50 values for the individual organs were determined from these experiments. […]

[7] = molecular target: T4, muscarinic receptors of the atrium (Cavia porcellus, UniProt H0VRN8); assay: Dissociation constants (KB values) on the isolated spontaneously beating right atrium; set-up: species or system guinea pig; details: spontaneously beating atrium, guinea pig, methacholine, 30 minutes contact; read-out: KB, Heart
T4 construct: isolated, spontaneously beating, right atrium; from tissue; host or cells: isolated spontaneously beating right atrium of the guinea pig
T4 sequence (H0VRN8 1-466): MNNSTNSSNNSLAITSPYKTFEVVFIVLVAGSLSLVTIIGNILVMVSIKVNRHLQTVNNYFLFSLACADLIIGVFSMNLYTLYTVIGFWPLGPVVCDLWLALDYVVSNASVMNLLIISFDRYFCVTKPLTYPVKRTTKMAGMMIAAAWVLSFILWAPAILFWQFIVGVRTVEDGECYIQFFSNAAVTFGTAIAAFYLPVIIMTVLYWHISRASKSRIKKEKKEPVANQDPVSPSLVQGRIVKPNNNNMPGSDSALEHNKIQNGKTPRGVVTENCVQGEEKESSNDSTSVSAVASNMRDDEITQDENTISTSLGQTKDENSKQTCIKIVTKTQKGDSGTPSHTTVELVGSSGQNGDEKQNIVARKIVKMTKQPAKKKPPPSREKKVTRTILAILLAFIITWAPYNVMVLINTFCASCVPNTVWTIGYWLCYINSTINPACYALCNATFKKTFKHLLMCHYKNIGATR
Experimental: (§2) Dissociation constants (KB values) were determined "in vitro" on the ileum and spontaneously beating atrium of the guinea pig. The ileum was taken out and incubated in Krebs-Henseleit solution in an organ bath. Contractions were induced by increasing concentrations of methacholine (M) so that total concentration/activity curves could be recorded. M was then washed out, the test substance was added and kept in contact for 30 minutes and another concentration/activity curve was recorded with M.
(§3) Dissociation constants for the muscarinic receptors of the atrium were obtained in the manner described above.

[8] = test system: muscarinic receptors of the atrium; assay: as above; set-up: species or system guinea pig; details: guinea pig heart and ileum in vitro
Experimental: as §2, §3

[9] = test system: muscarinic receptors (bronchi); assay: Receptor binding test in vivo (3H-NMS), bronchi; set-up: species or system rat (female); details: i.v., in vivo 3H-NMS binding, rat; 30 min
Experimental: as §1

[10] = molecular target: T5, muscarinic receptors (heart, ventricle) (Rattus norvegicus, UniProt P10980); assay: Receptor binding test in vivo (3H-NMS), ventricle; set-up: species or system rat (female); details: iv, 0.5 h, read-out: ID50, Heart, Ventricle
T5 construct: from tissue; host or cells: heart (atrium, ventricle) of female rats, labelled in vivo
T5 sequence (P10980 1-466): T1 sequence (P10980 1-466)
Experimental: as §1

[11] = molecular target: T6, muscarinic receptors (ileum) (Cavia porcellus, UniProt H0W1Z3); assay: Dissociation constants (KB values) on the isolated ileum; details: guinea pig, methacholine, 30 minutes contact
T6 construct: from tissue; host or cells: isolated ileum of the guinea pig
Experimental: as §2

[12] = molecular target: T7, muscarinic receptors (heart, atrium) (Rattus norvegicus, UniProt P10980); assay: Receptor binding test in vivo (3H-NMS), atrium; set-up: species or system rat (female)
T7 construct: from tissue; host or cells: heart (atrium, ventricle) of female rats, labelled in vivo
T7 sequence (P10980 1-466): T1 sequence (P10980 1-466)
Experimental: as §1

[13] = test system: heart rate; assay: Inhibition of acetylcholine activity on heart rate; assay type: in vivo, guinea pig; details: Cavia porcellus, 5 min, read-out: log ED50, Heart
Experimental: (§4) 5 minutes after the administration of the test substance, 10 mcg/kg of acetylcholine were simultaneously injected intravenously and intra-arterially into anaesthetised guinea pigs. The heart rate was recorded directly by extracorporeal derivation of the ECG, the expiration resistance according to Konzett-Rossler and contraction of the exposed bladder. In order to determine the inhibition of the acetylcholine activity on the organs under investigation, dosage/activity curves were recorded and from them -log ED50 values were determined.

[14] = test system: bladder; assay: Inhibition of acetylcholine activity on the bladder (contraction of the exposed bladder); assay type: in vivo, guinea pig; details: Cavia porcellus, 5 min, read-out: log ED50, Bladder
Experimental: as §4

[15] = i.v., 50% reduction of McN-A-343 rise in blood pressure

muscarinic receptors (submandibular gland), sequence (P08483 whole entry): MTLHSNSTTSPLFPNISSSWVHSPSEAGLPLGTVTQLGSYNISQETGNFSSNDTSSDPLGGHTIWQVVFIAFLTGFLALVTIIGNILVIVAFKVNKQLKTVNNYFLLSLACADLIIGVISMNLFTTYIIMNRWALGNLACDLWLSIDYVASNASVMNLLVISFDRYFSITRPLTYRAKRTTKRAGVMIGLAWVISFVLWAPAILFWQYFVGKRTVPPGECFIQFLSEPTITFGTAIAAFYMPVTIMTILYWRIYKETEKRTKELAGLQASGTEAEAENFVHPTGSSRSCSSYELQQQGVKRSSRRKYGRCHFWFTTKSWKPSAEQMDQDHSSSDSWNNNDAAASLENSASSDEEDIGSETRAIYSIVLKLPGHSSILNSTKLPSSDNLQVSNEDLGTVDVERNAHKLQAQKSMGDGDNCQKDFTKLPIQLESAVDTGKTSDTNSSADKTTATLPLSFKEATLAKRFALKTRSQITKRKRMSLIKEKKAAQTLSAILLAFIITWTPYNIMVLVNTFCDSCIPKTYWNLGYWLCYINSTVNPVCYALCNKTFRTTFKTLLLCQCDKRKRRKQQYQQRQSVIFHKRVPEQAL
muscarinic receptors (lachrymal glands), sequence (P08483 whole entry): as above
T6 sequence (H0W1Z3 1-590): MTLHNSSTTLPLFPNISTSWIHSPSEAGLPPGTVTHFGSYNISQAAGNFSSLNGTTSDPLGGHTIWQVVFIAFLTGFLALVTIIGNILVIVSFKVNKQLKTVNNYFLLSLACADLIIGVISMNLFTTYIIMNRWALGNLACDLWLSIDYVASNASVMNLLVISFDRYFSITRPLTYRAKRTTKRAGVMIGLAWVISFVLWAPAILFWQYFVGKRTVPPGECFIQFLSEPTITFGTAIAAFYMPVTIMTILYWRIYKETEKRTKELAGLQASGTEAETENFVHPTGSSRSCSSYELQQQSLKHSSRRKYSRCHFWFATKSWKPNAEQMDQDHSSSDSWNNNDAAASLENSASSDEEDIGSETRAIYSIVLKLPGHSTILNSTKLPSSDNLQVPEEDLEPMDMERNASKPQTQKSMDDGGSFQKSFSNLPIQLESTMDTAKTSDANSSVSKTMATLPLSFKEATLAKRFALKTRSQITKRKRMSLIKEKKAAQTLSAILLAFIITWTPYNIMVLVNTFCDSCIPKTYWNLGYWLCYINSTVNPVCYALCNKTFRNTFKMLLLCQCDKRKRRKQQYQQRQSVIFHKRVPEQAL

SMILES: CCN(CC)CCCCC1CCCCN1C(=O)N1c2ccccc2C(=O)Nc2cccnc21 (stereo not drawn) [Example 4 dihydrochloride]
solubility in water (in words) [5]: water soluble

SMILES: Cl.O=C1Nc2cccnc2N(C(=O)N2CCCC(CCN3CCCCCC3)C2)c2ccccc21 (stereo not drawn) [Substance F, 5,11-dihydro-11-[[3-[2-(hexahydro-1H-1-azepinyl)ethyl]-1-piperidinyl]carbonyl]-6H-pyrido[2,3-b][1,4]-benzodiazepin-6-one-hydrochloride]
Selectivity factor: ratio IC50 submandibular gland to IC50 heart [1]: 10
IC50 [3]: 30.2 nM

SMILES: O=C1Nc2cccnc2N(C(=O)N2CCCC(CCN3CCCC3)C2)c2ccccc21 (stereo not drawn) [Substance D, 5,11-dihydro-11-[[3-[2-(1-pyrrolidinyl)ethyl]-1-piperidinyl]carbonyl]-6H-pvrido[2,3-b][1,4]benzodiazepin-6-one-hydrochloride]
Selectivity factor: ratio IC50 submandibular gland to IC50 heart [1]: 8.3
IC50 [3]: 50.1 nM

SMILES: CN1[C@@H]2CC[C@H]1C[C@@H](OC(=O)C(CO)c1ccccc1)C2 (stereo partly drawn) [Substance Z, atropine, reference compound]
ED50 [6]: 0.2 mg/kg
Kb [7]: 1.41 nM
ID50, Bronchi [9]: 0.1 mg/kg
ED50 [10]: 0.03 mg/kg
ED50 ([12]; iv, 0.5 h, read-out: ID50, Heart, Atrium): 0.08 mg/kg
ED50 [13]: 0.02 µmol/kg
ED50 [14]: 0.0933 µmol/kg
ED50 [4]: 0.016 mg/kg

SMILES: Cl.O=C1Nc2cccnc2N(C(=O)N2CCCC(CCCN3CCCC3)C2)c2ccccc21 (stereo not drawn) [Substance B, 5,11-dihydro-11-[[3-[3-(1-pyrrolidinyl)propyl]-1-piperidinyl]carbonyl]-6H-pyrido[2,3-b][1,4]benzodiazepin-6-one-hydrochloride]
Selectivity factor: ratio IC50 submandibular gland to IC50 heart [1]: 4
IC50 [3]: 39.8 nM

SMILES: CCN(CC)CC1CCCCN1CC(=O)N1c2ccccc2C(=O)Nc2cccnc21 (stereo not drawn) [Substance X, 11-[[2-[(diethylamino)methyl]-1-piperidinyl]acetyl]-5,11-dihydro-6H-pyrido[2,3-b][1,4]benzodiazepin-6-one]
ED50 [6]: > 30 mg/kg

SMILES: CS(=O)(=O)O.O=C1Nc2cccnc2N(C(=O)N2CCCC(CCCN3CCCCC3)C2)c2ccccc21 (stereo not drawn) [Example 1 methanesulphonate, 5,11-dihydro-11-[[3-[3-(1-piperidinyl)propyl]-1-piperidinyl]carbonyl]-6H-pyrido[2,3-b][1,4]benzodiazepin-6-one-methanesulphonate]
solubility in water (in words) [5]: readily soluble in water

Continued, in another order:

Selectivity factor: ratio IC50 submandibular gland to IC50 heart [1]: 10
ED50 [2]: 0.00813 mg/kg
IC50 [3]: 39.8 nM
SMILES: O=C1Nc2ccccc2N(C(=O)N2CCCC(CCN3CCCCC3)C2)c2ncccc21 (stereo not drawn) [Substance G, 6,11-dihydro-11-[[3-[2-(1-piperidinyl)ethyl]-1-piperidinyl]carbonyl]-5H-pyrido[2,3-b][1,5]benzodiazepin-5-one]
ED50 [4, 15]: 0.00716 mg/kg

Selectivity factor: ratio IC50 submandibular gland to IC50 heart [1]: 10
IC50 [3]: 30.2 nM
SMILES: CN(CCC1CCCN(C(=O)N2c3ccccc3C(=O)Nc3cccnc32)C1)C1CCCC1 (stereo not drawn) [Substance E]

Ratio of ID50 in the lachrymal glands to ID50 in the atrium ([6]; in vivo binding): 20
Kb [7]: 0.347 nM
Selectivity factor: ratio IC50 submandibular gland to IC50 heart [1]: 10
ED50 ([10]; i.v., in vivo 3H-NMS binding): 0.005 mg/kg
Kb [11]: 3.23 nM
ED50 [2]: 0.0069 mg/kg
IC50 [3]: 20 nM
SMILES: O=C1Nc2cccnc2N(C(=O)N2CCCC(CCCN3CCCCC3)C2)c2ccccc21 (stereo not drawn) [Substance A, 5,11-dihydro-11-[[3-[3-(1-piperidinyl)propyl]-1-piperidinyl]carbonyl]-6H-pyrido[2,3-b][1,4]-benzodiazepin-6-one]
effectiveness compared with X and Y, Table III (in words) [8]: significantly more effective than X and Y
selectivity heart vs smooth muscle, Table III (in words) [8]: a clear selectivity in favour of the heart
ID50, Bronchi [9]: 0.06 mg/kg
potency on the heart compared with X and Y, Table IV (in words) ([12]; in vivo binding): significant improvement in potency compared with substances X and Y on the heart
ED50 [4, 15]: 0.049 mg/kg

Selectivity factor: ratio IC50 submandibular gland to IC50 heart [1]: 10
ED50 [2]: 0.0076 mg/kg
IC50 [3]: 30.2 nM
SMILES: CS(=O)(=O)O.O=C1Nc2cccnc2N(C(=O)N2CCCC(CCN3CCCCC3)C2)c2ccccc21 (stereo not drawn) [Substance C, 5,11-dihydro-11-[[3-[2-(1-piperidinyl)ethyl]-1-piperidinyl]carbonyl]-6H-pyrido[2,3-b][1,4]benzodiazepin-6-one-methanesulphonate]
ED50 [4, 15]: 0.039 mg/kg
